Read-outs that look alike come from different tables or passages of the source.
Molecular target: T1, F508delCFTR (Homo sapiens, UniProt P13569, DEL508-508)
T1 construct: expressed in transfected cells; host or cells: CFBE41o- human lung derived epithelial cells (CFBE41o-F508delCFTR-HRP), doxycycline-inducible
Experiment: Cell Surface Expression-Horse Radish Peroxidase (CSE-HRP) Assay;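 as to EC50 (with co-corrector): co-corrector chromenyl benzoic acid corrector at 2 or 3 µM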;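 as to Maximum % activity (without co-corrector): % of on-plate positive control chromenyl benzoic acid corrector at 2 or 3 µM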
Assay type: cell-based
Conditions: for Maximum % activity (with co-corrector) / Emax: maximum at any tested concentration; for Emax: read-out: Maximum % activity (without co-corrector)
Outline: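 Corrector compounds were given as 8-point 3-fold series from 20 or 30 μM, with or without a 2 μM co-corrector, for 18-24 h at 33 °C. Surface HRP was read by luminol luminescence as % of positive control; variable-Hill-slope sigmoidal fitting gave EC50 from triplicate plates.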

[1] = test compound alone, without co-corrector, read-out: EC50 (without co-corrector)
[2] = with co-corrector, read-out: EC50 (with co-corrector)

T1 sequence (P13569 with tags, fused parts or gaps DEL508-508): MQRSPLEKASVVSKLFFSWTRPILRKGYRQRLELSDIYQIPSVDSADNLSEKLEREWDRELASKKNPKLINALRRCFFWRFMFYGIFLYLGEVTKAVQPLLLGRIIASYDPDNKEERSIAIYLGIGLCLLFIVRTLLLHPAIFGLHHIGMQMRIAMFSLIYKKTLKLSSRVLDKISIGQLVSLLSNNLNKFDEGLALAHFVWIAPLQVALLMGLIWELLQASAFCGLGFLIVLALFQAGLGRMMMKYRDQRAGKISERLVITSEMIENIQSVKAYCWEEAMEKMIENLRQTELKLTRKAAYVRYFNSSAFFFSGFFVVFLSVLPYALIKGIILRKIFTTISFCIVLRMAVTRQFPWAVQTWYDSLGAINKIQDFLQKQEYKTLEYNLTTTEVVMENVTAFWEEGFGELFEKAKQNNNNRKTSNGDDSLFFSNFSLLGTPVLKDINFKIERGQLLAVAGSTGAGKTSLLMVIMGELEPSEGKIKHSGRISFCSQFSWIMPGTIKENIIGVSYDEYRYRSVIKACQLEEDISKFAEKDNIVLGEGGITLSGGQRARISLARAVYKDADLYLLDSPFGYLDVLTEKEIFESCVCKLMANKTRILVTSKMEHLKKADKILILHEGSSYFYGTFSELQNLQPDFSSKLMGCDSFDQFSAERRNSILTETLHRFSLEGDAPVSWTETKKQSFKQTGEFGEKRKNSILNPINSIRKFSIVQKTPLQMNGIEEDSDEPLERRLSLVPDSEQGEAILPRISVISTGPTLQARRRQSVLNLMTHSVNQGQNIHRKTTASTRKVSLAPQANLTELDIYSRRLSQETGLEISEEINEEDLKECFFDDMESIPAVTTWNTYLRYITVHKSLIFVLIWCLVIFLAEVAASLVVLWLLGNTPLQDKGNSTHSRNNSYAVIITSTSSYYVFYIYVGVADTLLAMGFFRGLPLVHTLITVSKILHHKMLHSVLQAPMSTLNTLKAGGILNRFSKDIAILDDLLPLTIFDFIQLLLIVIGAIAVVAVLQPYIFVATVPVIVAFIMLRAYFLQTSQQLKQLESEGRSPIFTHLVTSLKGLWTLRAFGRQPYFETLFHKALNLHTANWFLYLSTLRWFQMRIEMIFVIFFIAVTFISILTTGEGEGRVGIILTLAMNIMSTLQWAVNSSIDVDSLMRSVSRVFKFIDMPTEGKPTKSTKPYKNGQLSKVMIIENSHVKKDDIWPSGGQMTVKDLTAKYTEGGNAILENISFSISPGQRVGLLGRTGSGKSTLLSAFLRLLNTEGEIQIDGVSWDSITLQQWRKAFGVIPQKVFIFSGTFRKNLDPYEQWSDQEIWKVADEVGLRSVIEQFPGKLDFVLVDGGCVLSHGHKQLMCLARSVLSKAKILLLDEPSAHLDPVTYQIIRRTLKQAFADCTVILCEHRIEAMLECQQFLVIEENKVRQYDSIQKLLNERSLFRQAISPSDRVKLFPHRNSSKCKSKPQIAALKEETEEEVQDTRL

Row | EC50 [1] [µM] | Maximum % activity (with co-corrector) (with co-corrector) | EC50 [2] [µM] | Emax (without co-corrector) [%] | SMILES
1 | < 3 | +++ (≥350) | < 3 | > 150 | CCCc1nc(C(F)(F)F)ccc1C1(C(=O)NS(=O)(=O)c2cccc3c2CCCN3)CC1 [Example GI-8, 1-[2-propyl-6-(trifluoromethyl)pyridin-3-yl]-N-(1,2,3,4-tetrahydroquinoline-5-sulfonyl)cyclopropane-1-carboxamide]
2 | < 3 | +++ (≥350) | < 3 | > 150 | Cc1cnc(OCC(C)C)c(C2(C(=O)NS(=O)(=O)c3cccc4nc(N)ccc34)CC2)c1 [Example I-96, N-(2-aminoquinoline-5-sulfonyl)-1-[5-methyl-2-(2-methylpropoxy)pyridin-3-yl]cyclopropane-1-carboxamide]
3 | 3 to 10 | +++ (≥350) | < 3 | > 150 | COc1cc(C2CCC2)cc(OC)c1C1(C(=O)NS(=O)(=O)c2cccn3nccc23)CC1 [II-68]
4 | 3 to 10 | +++ (≥350) | 3 to 10 | 50 to 150 | CCn1nc(C)cc1C1(C(=O)NS(=O)(=O)c2cccc3ccccc23)CC1 [II-4]
5 | 3 to 10 | +++ (≥350) | < 3 | > 150 | CC(C)c1nc(C(F)(F)F)ccc1C1(C(=O)NS(=O)(=O)c2cccc3ncccc23)CC1 [Example GI-7, 1-[2-(propan-2-yl)-6-(trifluoromethyl)pyridin-3-yl]-N-(quinoline-5-sulfonyl)cyclopropane-1-carboxamide]
6 | > 10 | + (<150) | > 10 | < 50 | Cc1ccc(S(=O)(=O)NC(=O)C2(c3cccc(Cl)c3)CC2)cc1C [Example III-74, 1-(3-chlorophenyl)-N-(3,4-dimethylbenzene-1-sulfonyl)cyclopropane-1-carboxamide]
7 | < 3 | +++ (≥350) | < 3 | > 150 | CCc1ccc(O[C@@H]2CCOC2)c(C2(C(=O)NS(=O)(=O)c3cccc4nc(C)ccc34)CC2)c1 [Example I-119, 1-(5-ethyl-2-{[(3R)-oxolan-3-yl]oxy}phenyl)-N-(2-methylquinoline-5-sulfonyl)cyclopropane-1-carboxamide]
8 | 3 to 10 | +++ (≥350) | < 3 | > 150 | COc1ncc(C2CCC2)cc1C1(C(=O)NS(=O)(=O)c2cccc3[nH]ncc23)CC1 [II-15]
9 | > 10 | + (<150) | > 10 | < 50 | CCC(CC)S(=O)(=O)NC(=O)C1(c2ccccc2)CC1 [Example III-116, N-(pentane-3-sulfonyl)-1-phenylcyclopropane-1-carboxamide]
10 | < 3 | +++ (≥350) | < 3 | > 150 | CC(C)COc1ccc(N(C)C)c(C2(C(=O)NS(=O)(=O)c3cccc4ncccc34)CC2)n1 [Example I-108, 1-[3-(dimethylamino)-6-(2-methylpropoxy)pyridin-2-yl]-N-(quinoline-5-sulfonyl)cyclopropane-1-carboxamide]
11 | 3 to 10 | +++ (≥350) | < 3 | > 150 | COc1ncc(C(F)(F)F)cc1C1(C(=O)NS(=O)(=O)c2cccc3nc(C)ccc23)CC1 [II-9]
12 | > 10 | + (<150) | > 10 | < 50 | O=C(NS(=O)(=O)C1CCNCC1)C1(c2ccc(Cl)cc2Cl)CC1 [Example III-77, 1-(2.4-dichlorophcnyl)-N-(piperidine-4-sulfonyl)cyclopropane-1-carboxamide]
13 | > 10 | ++ (≥150 and <350) | 3 to 10 | < 50 | Cc1ccc(C2(C(=O)NS(=O)(=O)Cc3ccccc3)CC2)cc1 [Example III-111, 1-(4-methylphenyl)-N-(phenylmethanesulfonyl)cyclopropane-1-carboxamide]
